Laboratory results from US20250161501A1, “Radiolabeled Compounds for Imaging of Fibroblast Activation Protein (FAP) and Treatment of FAP-Related Disorders” (Provincial Health Services Authority, priority 2022, published 2025).
Blank lines part the entries; values can stand above or below the compound they belong to.

Assays:
U87 xenografts = assay: Ex vivo biodistribution of 68Ga-labeled tracer in U87 tumor-bearing mice; details: U87 tumor model, mean±SD
Procedure: (§1) All imaging and biodistribution studies were performed using male NOD-scidIL2Rg^null (NRG) mice and conducted according to the guidelines established by the Canadian Council on Animal Care and approved by Animal Ethics Committee of the University of British Columbia. For tumor inoculations, mice were anesthetized by inhalation with 2% isoflurane in oxygen and implanted subcutaneously with 7.5×10^6 HEK293T:hFAP or U87 cells below the left shoulder. Imaging and biodistribution studies were performed only after tumors grew to 5-8 mm in diameter.
For ex vivo biodistribution studies, mice were injected with -1-3 MBq of the ^68Ga-labeled tracer. Mice were allowed to recover and roam freely in the cages after injecting the tracer. […] The uptake in each organ/tissue was normalized to the injected dose and expressed as the percentage of the injected dose per gram of tissue (% ID/g). […]

[1] = tested on: HEK293T:hFAP tumor xenografts; assay: Ex vivo biodistribution of 68Ga-labeled tracers in HEK293T:hFAP tumor-bearing mice; details: for Uptake in HEK293T:hFAP tumor xenografts, comparison in words: 68Ga-SB03178 vs 68Ga-FAPI-4, 68Ga-SB04033 vs 68Ga-SB03178
Procedure: as §1
For ex vivo biodistribution studies, mice were injected with -1-3 MBq of the ^68Ga-labeled tracer. Mice were allowed to recover and roam freely in the cages after injecting the tracer. […] The uptake in each organ/tissue was normalized to the injected dose and expressed as the percentage of the injected dose per gram of tissue (% ID/g).
Biodistribution data for ^68Ga-SB03178, ^68Ga-SB04033, and ^68Ga-FAPI-4 in mice bearing FAP tumor xenografts are presented in Tables 5-7. Data are presented as mean±SD % ID/g.

[2] = HEK293T:hFAP tumor model, 1 h post-injection (n = 4), mean±SD
[3] = HEK293T:hFAP tumor model, 3 h post-injection (n = 2), mean±SD
[4] = HEK293T:hFAP tumor xenograft mice, 1 h post-injection, Table 5, mean±SD

Biodistribution: Adrenal Glands (U87 xenografts; 1 h post-injection (n = 3)): 1.41 ± 0.38 % ID/g | Biodistribution: Blood (U87 xenografts; 1 h post-injection (n = 3)): 3.55 ± 0.22 % ID/g | Biodistribution: Bone (U87 xenografts; 1 h post-injection (n = 3)): 2.51 ± 0.66 % ID/g | Biodistribution: Brain (U87 xenografts; 1 h post-injection (n = 3)): 0.07 ± 0.01 % ID/g | Biodistribution: Fat (U87 xenografts; 1 h post-injection (n = 3)): 0.28 ± 0.18 % ID/g | Biodistribution: Heart (U87 xenografts; 1 h post-injection (n = 3)): 0.80 ± 0.06 % ID/g | Biodistribution: Kidneys (U87 xenografts; 1 h post-injection (n = 3)): 8.92 ± 1.32 % ID/g | Biodistribution: Large Intestines (U87 xenografts; 1 h post-injection (n = 3)): 0.44 ± 0.09 % ID/g | Biodistribution: Liver (U87 xenografts; 1 h post-injection (n = 3)): 1.12 ± 0.08 % ID/g | Biodistribution: Lungs (U87 xenografts; 1 h post-injection (n = 3)): 1.66 ± 0.10 % ID/g | Biodistribution: Muscle (U87 xenografts; 1 h post-injection (n = 3)): 0.57 ± 0.21 % ID/g | Biodistribution: Pancreas (U87 xenografts; 1 h post-injection (n = 3)): 0.65 ± 0.11 % ID/g | Biodistribution: Small Intestine (U87 xenografts; 1 h post-injection (n = 3)): 1.07 ± 0.03 % ID/g | Biodistribution: Spleen (U87 xenografts; 1 h post-injection (n = 3)): 0.48 ± 0.08 % ID/g | Biodistribution: Stomach (U87 xenografts; 1 h post-injection (n = 3)): 0.28 ± 0.12 % ID/g | Biodistribution: Testes (U87 xenografts; 1 h post-injection (n = 3)): 0.65 ± 0.09 % ID/g | Biodistribution: Tumor (U87 xenografts; 1 h post-injection (n = 3)): 16.3 ± 1.72 % ID/g | Biodistribution: Adrenal Glands (U87 xenografts; 3 h post-injection (n = 3)): 0.49 ± 0.30 % ID/g | Biodistribution: Blood (U87 xenografts; 3 h post-injection (n = 3)): 0.98 ± 0.09 % ID/g | Biodistribution: Bone (U87 xenografts; 3 h post-injection (n = 3)): 1.11 ± 0.27 % ID/g | Biodistribution: Brain (U87 xenografts; 3 h post-injection (n = 3)): 0.03 ± 0.00 % ID/g | Biodistribution: Fat (U87 xenografts; 3 h post-injection (n = 3)): 0.09 ± 0.04 % ID/g | Biodistribution: Heart (U87 xenografts; 3 h post-injection (n = 3)): 0.28 ± 0.01 % ID/g | Biodistribution: Kidneys (U87 xenografts; 3 h post-injection (n = 3)): 9.63 ± 1.23 % ID/g | Biodistribution: Large Intestines (U87 xenografts; 3 h post-injection (n = 3)): 1.15 ± 0.37 % ID/g | Biodistribution: Liver (U87 xenografts; 3 h post-injection (n = 3)): 0.71 ± 0.05 % ID/g | Biodistribution: Lungs (U87 xenografts; 3 h post-injection (n = 3)): 0.72 ± 0.11 % ID/g | Biodistribution: Muscle (U87 xenografts; 3 h post-injection (n = 3)): 0.34 ± 0.07 % ID/g | Biodistribution: Pancreas (U87 xenografts; 3 h post-injection (n = 3)): 0.27 ± 0.06 % ID/g | Biodistribution: Small Intestine (U87 xenografts; 3 h post-injection (n = 3)): 0.56 ± 0.16 % ID/g | Biodistribution: Spleen (U87 xenografts; 3 h post-injection (n = 3)): 0.34 ± 0.04 % ID/g | Biodistribution: Stomach (U87 xenografts; 3 h post-injection (n = 3)): 0.24 ± 0.02 % ID/g | Biodistribution: Testes (U87 xenografts; 3 h post-injection (n = 3)): 0.25 ± 0.03 % ID/g | Biodistribution: Tumor (U87 xenografts; 3 h post-injection (n = 3)): 7.95 ± 0.29 % ID/g | Uptake in HEK293T:hFAP tumor xenografts, comparison in words [1]: higher uptake | Biodistribution: Adrenal Glands [1, 2]: 3.01 ± 2.86 % ID/g | Biodistribution: Blood [1, 2]: 2.59 ± 0.32 % ID/g | Biodistribution: Bone [1, 2]: 1.89 ± 0.31 % ID/g | Biodistribution: Brain [1, 2]: 0.06 ± 0.01 % ID/g | Biodistribution: Fat [1, 2]: 0.22 ± 0.03 % ID/g | Biodistribution: Heart [1, 2]: 0.71 ± 0.09 % ID/g | Biodistribution: Kidneys [1, 2]: 9.58 ± 1.21 % ID/g | Biodistribution: Large Intestines [1, 2]: 0.52 ± 0.21 % ID/g | Biodistribution: Liver [1, 2]: 1.11 ± 0.15 % ID/g | Biodistribution: Lungs [1, 2]: 1.66 ± 0.23 % ID/g | Biodistribution: Muscle [1, 2]: 0.56 ± 0.08 % ID/g | Biodistribution: Pancreas [1, 2]: 0.57 ± 0.05 % ID/g | Biodistribution: Small Intestine [1, 2]: 1.04 ± 0.14 % ID/g | Biodistribution: Spleen [1, 2]: 0.87 ± 0.30 % ID/g | Biodistribution: Stomach [1, 2]: 0.27 ± 0.19 % ID/g | Biodistribution: Testes [1, 2]: 0.44 ± 0.08 % ID/g | Biodistribution: Tumor [1, 2]: 21.0 ± 3.84 % ID/g | Biodistribution: Adrenal Glands [1, 3]: 0.31 ± 0.06 % ID/g | Biodistribution: Blood [1, 3]: 1.35 ± 1.18 % ID/g | Biodistribution: Bone [1, 3]: 0.38 ± 0.07 % ID/g | Biodistribution: Brain [1, 3]: 0.02 ± 0.00 % ID/g | Biodistribution: Fat [1, 3]: 0.11 ± 0.10 % ID/g | Biodistribution: Heart [1, 3]: 0.15 ± 0.06 % ID/g | Biodistribution: Kidneys [1, 3]: 3.89 ± 1.35 % ID/g | Biodistribution: Large Intestines [1, 3]: 0.53 ± 0.13 % ID/g | Biodistribution: Liver [1, 3]: 0.33 ± 0.13 % ID/g | Biodistribution: Lungs [1, 3]: 0.39 ± 0.08 % ID/g | Biodistribution: Muscle [1, 3]: 0.13 ± 0.08 % ID/g | Biodistribution: Pancreas [1, 3]: 0.17 ± 0.05 % ID/g | Biodistribution: Small Intestine [1, 3]: 0.34 ± 0.21 % ID/g | Biodistribution: Spleen [1, 3]: 0.24 ± 0.07 % ID/g | Biodistribution: Stomach [1, 3]: 0.06 ± 0.02 % ID/g | Biodistribution: Testes [1, 3]: 0.12 ± 0.03 % ID/g | Biodistribution: Tumor [1, 3]: 6.58 ± 1.98 % ID/g | Biodistribution: Adrenal Glands [1, 4]: 3.48 ± 3.31 % ID/g | Biodistribution: Blood [1, 4]: 3.00 ± 0.38 % ID/g | Biodistribution: Bone [1, 4]: 2.18 ± 0.35 % ID/g | Biodistribution: Brain [1, 4]: 0.07 ± 0.01 % ID/g | Biodistribution: Fat [1, 4]: 0.25 ± 0.04 % ID/g | Biodistribution: Heart [1, 4]: 0.82 ± 0.10 % ID/g | Biodistribution: Kidneys [1, 4]: 11.1 ± 1.40 % ID/g | Biodistribution: Liver [1, 4]: 1.29 ± 0.17 % ID/g | Biodistribution: Lungs [1, 4]: 1.92 ± 0.26 % ID/g | Biodistribution: Muscle [1, 4]: 0.65 ± 0.09 % ID/g | Biodistribution: Pancreas [1, 4]: 0.66 ± 0.06 % ID/g | Biodistribution: Spleen [1, 4]: 1.00 ± 0.35 % ID/g | Biodistribution: Stomach [1, 4]: 0.32 ± 0.22 % ID/g | Biodistribution: Testes [1, 4]: 0.51 ± 0.09 % ID/g | Biodistribution: Tumor [1, 4]: 24.3±4.44 % ID/g
SMILES: N#C[C@@H]1CC(F)(F)CN1C(=O)CNC(=O)c1ccnc2c1cc(OCCCN1CCN(C(=O)CN3CCN(CC(=O)O)CCN(CC(=O)O)CCN(CC(=O)O)CC3)CC1)c1ccccc12 [^68Ga-SB03178, metal not drawn]

Uptake in HEK293T:hFAP tumor xenografts, comparison in words [1]: weaker uptake | Biodistribution: Adrenal Glands [1, 2]: 0.65 ± 0.46 % ID/g | Biodistribution: Blood [1, 2]: 3.62 ± 0.47 % ID/g | Biodistribution: Bone [1, 2]: 1.52 ± 0.22 % ID/g | Biodistribution: Brain [1, 2]: 0.08 ± 0.01 % ID/g | Biodistribution: Fat [1, 2]: 0.30 ± 0.15 % ID/g | Biodistribution: Heart [1, 2]: 0.95 ± 0.12 % ID/g | Biodistribution: Kidneys [1, 2]: 10.3 ± 0.55 % ID/g | Biodistribution: Large Intestines [1, 2]: 0.33 ± 0.03 % ID/g | Biodistribution: Liver [1, 2]: 1.06 ± 0.11 % ID/g | Biodistribution: Lungs [1, 2]: 2.13 ± 0.33 % ID/g | Biodistribution: Muscle [1, 2]: 0.54 ± 0.11 % ID/g | Biodistribution: Pancreas [1, 2]: 0.62 ± 0.05 % ID/g | Biodistribution: Small Intestine [1, 2]: 1.53 ± 0.20 % ID/g | Biodistribution: Spleen [1, 2]: 0.98 ± 0.27 % ID/g | Biodistribution: Stomach [1, 2]: 0.30 ± 0.10 % ID/g | Biodistribution: Testes [1, 2]: 0.59 ± 0.07 % ID/g | Biodistribution: Tumor [1, 2]: 5.95 ± 0.16 % ID/g
SMILES: C[C@@H](NC(=O)c1ccnc2c1cc(OCCCN1CCN(C(=O)CN3CCN(CC(=O)O)CCN(CC(=O)O)CCN(CC(=O)O)CC3)CC1)c1ccccc12)C(=O)N1CCC[C@H]1B(O)O [^68Ga-SB04033, metal not drawn]
